Measured values taken from US20030149005A1, “24-sulfur-substituted analogs of 1alpha, 25-dihydroxy vitamin D3” (priority 2001, published 2003).

Experiments:
CYP27B1 = target: T1, CYP27B1 (UniProt O15528); experiment: Assay of CYP1-alpha hydroxylase (transfected COS-1 cells); format: cell-based; settings: COS-1 cells transfected with CYP-1alpha hydroxylase cDNA, [3H-26,27]-25(OH)D3 substrate
T1 sequence (O15528 1-508): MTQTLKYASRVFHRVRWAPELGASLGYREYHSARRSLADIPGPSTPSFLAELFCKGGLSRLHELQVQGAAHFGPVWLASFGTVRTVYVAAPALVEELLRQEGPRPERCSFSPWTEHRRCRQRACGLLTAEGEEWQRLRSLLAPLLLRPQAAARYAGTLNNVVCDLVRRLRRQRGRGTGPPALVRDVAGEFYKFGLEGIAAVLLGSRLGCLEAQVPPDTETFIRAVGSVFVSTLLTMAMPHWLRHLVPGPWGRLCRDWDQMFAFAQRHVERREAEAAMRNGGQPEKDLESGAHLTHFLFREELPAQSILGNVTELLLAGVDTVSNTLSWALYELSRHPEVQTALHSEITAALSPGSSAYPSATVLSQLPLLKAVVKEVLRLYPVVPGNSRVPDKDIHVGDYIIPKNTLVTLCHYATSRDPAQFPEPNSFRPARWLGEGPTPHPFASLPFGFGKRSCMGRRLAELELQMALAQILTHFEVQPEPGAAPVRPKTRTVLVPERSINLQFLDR
Description: Assay of CYP1-Alpha Hydroxylase (Using Transfected COS-1 Cells)
1. COS-1 cells (50-80% confluent)
2. FuGene 6 Transfection Reagent
3. PcDNA vector containing CYP-1alpha hydroxylase cDNA (1 μg/μl)
5. DMEM Medium (serum-free)
(ii) Transfection Cocktail Preparation (The Amount Depends on How Many Wells Transfected)
1. To a sterile tube, add serum-free medium (100 μl per well), Then add FuGene 6 Reagent (3 μl per well). Tap gently to mix. Pay attention to the order.
2. Add DNA solution (1 μg per well) to the prediluted FuGene 6 Reagent from step 2
3. Gently tap the tube to mix the contents. […] Incubate for 15 min at room temperature (no more than 45 min).
1. Trypsinize Cos-1 cells, centrifuge cell suspension, suspend cells pellet in DMEM medium+10% FCS.
2. Dilute the cells suspension to 750,000 cell/ml (75 cell/square),
1. Add 1.7 ml DMEM medium+10 O %FCS to each well of 6 well plate.
2. Transfer the correct volume of the cell suspension (200 μl/well) to the transfection cocktail. Mix them gently
3. Add 0.3 ml of the mixture to each well. Make sure that the same amount cells are added to each well. Swirl the wells to ensure even dispersal.
4. Incubate the cells for 24 hours at 37° C., 5% CO2 until enzyme activity assay.
(B) Enzyme Activity Assay
1. Wash cells once with PBS. Be careful, don't disturb the attached cells
2. Add 0.55 ml medium (DMEM+1%BSA) each well.
3. Add 0.025 ml medium containing test compounds
4. Incubate the cells for 10 minutes
6. Incubate the cells for 2 hour.
7. Add 1.5 ml Methanol to stop reaction
8. Add internal standard.
9. Transfer the medium to labeled tube.
10. Add 0.75 ml dichloromethane, vortex and keep in room temperature for 15 minutes.
11. Add 0.75 ml dichloromethane and 0.75 ml saturated KCl
12. Vortex and centrifuge
13. Remove upper phase and dry the lower phase in Speed-Vac
14. Add 110 μl mobile phase, vortex and centrifuge for 5 min.
15. Transfer 105 μl to the insert in HPLC vial.
16. HPLC analysis conditions:
Solvent: Hexane/isopropanol/methanol (91/7/2)
Detector: UV detector and radioactive detector.

CYP27A1 = target: T2, CYP27A1 (Homo sapiens, UniProt Q02318); experiment: CYP27A1 enzyme assay; format: biochemical
T2 construct: fused on or other part: Possibly fused to adrenodoxin reductase and adrenodoxin, if the fusion enzyme of Dilworth et al. 1996 was used
T2 sequence (Q02318 34-531): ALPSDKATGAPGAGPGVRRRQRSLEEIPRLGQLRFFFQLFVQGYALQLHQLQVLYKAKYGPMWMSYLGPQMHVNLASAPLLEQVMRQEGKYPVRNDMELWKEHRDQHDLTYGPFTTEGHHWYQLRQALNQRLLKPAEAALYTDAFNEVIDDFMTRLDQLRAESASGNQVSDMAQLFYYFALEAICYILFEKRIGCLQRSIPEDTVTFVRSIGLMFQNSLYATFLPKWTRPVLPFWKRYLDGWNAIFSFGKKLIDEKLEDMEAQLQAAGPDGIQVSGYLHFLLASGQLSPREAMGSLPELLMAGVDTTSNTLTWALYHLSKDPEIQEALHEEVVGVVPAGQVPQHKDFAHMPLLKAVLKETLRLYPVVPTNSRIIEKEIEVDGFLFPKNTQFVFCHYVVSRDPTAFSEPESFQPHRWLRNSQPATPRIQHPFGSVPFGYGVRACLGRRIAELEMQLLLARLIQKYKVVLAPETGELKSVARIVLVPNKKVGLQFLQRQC
Text: Dilworth F J, Black S M, Guo Y D, Miller W L, Jones G. Construction of a P450c27 fusion enzyme: a useful tool for analysis of vitamin D3 25-hydroxylase (1996) Biochem J 320:267-271
Sawada N, Sakaki T, Ohta M, Inouye K. Metabolism of vitamin D (3) by human CYP27A1 (2000) Biochem Biophys Res Commun 273(3):977-84

[1] = Calcium excretion (hypercalcemia assay) in rats; format: in vivo; settings: for urinary calcium levels: concentration 20 fold greater than the concentration of calcitriol
Description: Compound I(a) was tested for its effect on calcium excretion and weight gain in rats using a protocol described in Posner et al. J. Med. Chem. 41, 3008-3014, 1998.

CYP24 = target: T3, CYP24 (Homo sapiens, UniProt Q07973); experiment: CYP24 enzyme assay (induced HPK1A-ras cells); format: cell-based; settings: [3H]-1,25(OH)2D3 substrate
T3 construct: When the HPK1A-ras cells are 80-90% confluent, add 1 μL 10^−5 M 1,25(OH)2D3 to 1 mL medium; endogenous in cells; host or cells: HPK1A-ras cells induced with 10^-8 M 1,25(OH)2D3
T3 sequence (Q07973 36-514): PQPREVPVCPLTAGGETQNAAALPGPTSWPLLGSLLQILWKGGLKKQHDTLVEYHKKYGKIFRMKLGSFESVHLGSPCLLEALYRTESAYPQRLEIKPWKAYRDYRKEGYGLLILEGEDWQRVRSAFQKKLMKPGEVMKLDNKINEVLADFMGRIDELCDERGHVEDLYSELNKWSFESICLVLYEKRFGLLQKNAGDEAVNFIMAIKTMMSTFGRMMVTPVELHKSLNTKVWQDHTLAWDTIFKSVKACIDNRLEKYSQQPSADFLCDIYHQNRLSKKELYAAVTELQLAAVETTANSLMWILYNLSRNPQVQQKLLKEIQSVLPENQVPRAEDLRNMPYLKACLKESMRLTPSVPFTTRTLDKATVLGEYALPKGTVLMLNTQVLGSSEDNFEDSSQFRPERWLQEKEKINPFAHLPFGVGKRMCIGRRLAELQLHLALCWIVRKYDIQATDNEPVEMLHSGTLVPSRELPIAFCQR
Description: CYP24 Enzyme Assay (Induced KPK1A-ras Cells)
(i) Material and Reagents:
Saturated KCl: KCl 30 g, H2O400 ml
1. Induction of HPK1A-ras cells (The day before assay)
When the HPK1A-ras cells are 80-90% confluent, add 1 μL 10^−5 M 1,25(OH)2D3 to 1 mL medium in the plate (final concentration is 10^−8 M).
2. Preparation of cell suspension
After 18 to 20 hours induction, remove the medium and wash the cell twice with PBS. Then tripsinize the cells from plate, centrifuge (2,000 rpm, 5 min) and suspend cells pellet in DMEM medium+1%BSA.
Count the cells and adjust cells density to 250,000/150 μL, add 150 μL cell suspension to each well in 48-well plate. (including 3 well as no cell control, and 3 well cells without drug or inhibitor as control).
3. Add 25 μL ketoconazole (final concentration 10^−5 M, 10^−6 M, 10^−7 M, 10^−1 M) or drugs into each designated well. Keep the plate in 37° C. for 10 min.
4. Preparation of substrate
Take certain amount of DMEM+1%BSA medium (25*Well number+200) μL to a tube, add certain amount of 3H-1,25(OH)2D3 (well number+2) μL and certain amount of 100 mM DPPD (well number/5) μL and mix them by vortex.
Add 25 mL substrate to each well, incubate the plate at 37° C. for 3 hour.
Add 25 mL substrate to counting plate (2 well) as a total count.
6. Lipid extraction and counting
Add 500 μL methanol to each well to stop the reaction, transfer them to tube
Add 250 μL dichloromethane and vortex.
Add 250 μL dichloromethane and 250 μL saturated KCl, and vortex.
Centrifuge at 4000 rpm for 5 min.
Transfer 100 μL of aqueous phase (upper phase) to counting plastic counting plate. Add 600 μL of scintillation fluid to each well. Count the plate in scintillation counter.
7. Calculation enzyme activity
CPM of cell control after subtraction of CPM of NCC is as 100% enzyme activity.
Enzyme activity=(CPM in test compounds well —CPM in NCC well)/(CPM in Cell control−CPM in NCC well)*100%

Row | IC50 (CYP27B1) | IC50 (CYP27A1) | IC50 (CYP24) | calcemic activity ([1]; calcium excretion protocol) | SMILES | urinary calcium levels [1] | urinary calcium levels ([1]; listed as Ia)
1 | 8460 nM |  | 467 nM |  | C=C1/C(=C\C=C2/CCC[C@]3(C)C([C@H](C)CCSC(C)(C)C)=CC[C@@H]23)C[C@@H](O)C[C@@H]1O [I(gg)] |  | 
2 | > 10000 nM |  | 219 nM |  | C=C1/C(=C\C=C2/CCC[C@]3(C)[C@@H]([C@H](C)CCS(=O)(=O)C(C)(C)C)CC[C@@H]23)C[C@@H](O)C[C@@H]1O [I(v)] |  | 
3 | 9200 nM |  | 90 nM |  | C=C1/C(=C\C=C2/CCC[C@]3(C)[C@@H]([C@H](C)CCS(=O)(=O)C(C)C)CC[C@@H]23)C[C@@H](O)C[C@@H]1O [I(w)] |  | 

The next lines start with the compound.

Row | SMILES | IC50 (CYP27B1) | IC50 (CYP27A1) | IC50 (CYP24) | calcemic activity ([1]; calcium excretion protocol) | urinary calcium levels [1] | urinary calcium levels ([1]; listed as Ia)
4 | C=C1/C(=C\C=C2/CCC[C@]3(C)[C@@H]([C@H](C)CCS(=O)(=O)c4ccccc4)CC[C@@H]23)C[C@@H](O)C[C@@H]1O [I(a)] | > 10000 nM | > 10000 nM |  |  | did not show an increase in urinary calcium levels | did not increase the levels of calcium in the urine
5 | C=C1/C(=C\C=C2/CCC[C@]3(C)[C@@H]([C@H](C)CCS(=O)(=O)c4ccc(Cl)cc4)CC[C@@H]23)C[C@@H](O)C[C@@H]1O [I(e)] | > 1000 nM |  | 94 nM |  |  | 
6 | C=C1/C(=C\C=C2/CCC[C@]3(C)[C@@H]([C@H](C)CCS(=O)(=O)c4ccc(C)cc4)CC[C@@H]23)C[C@@H](O)C[C@@H]1O [I(g)] | > 1000 nM |  | 212 nM |  |  | 
7 | C=C1/C(=C\C=C2/CCC[C@]3(C)[C@@H]([C@H](C)CCS(=O)(=O)c4ccc(Cl)c(Cl)c4)CC[C@@H]23)C[C@@H](O)C[C@@H]1O [I(i)] | > 1000 nM |  | 92 nM |  |  | 
8 | C[C@H](CCS(=O)(=O)c1ccccc1)[C@H]1CC[C@H]2/C(=C/C=C3C[C@@H](O)C[C@H](O)C3)CCC[C@]12C [I(u)] |  |  | 160 nM | strongly non-calcemic |  | 
